Test results published in patent publication US20180071317A1, “USE OF AGENTS THAT ALTER THE PERITUMORAL ENVIRONMENT FOR THE TREATMENT OF CANCER” (SERVICIO ANDALUZ DE SALUD, priority 2011, published 2018).

How the values were obtained:
[1] = test system: fibroblasts (PHF) co-cultured with tumor cells of human endometrial carcinoma (AN3-CA); assay: Marker expression (IHC) in PHF co-cultured with AN3-CA tumor cells; type: cell-based; details: co-culture with AN3-CA; SP 1 μM + antagonist 1 μM; 48 h;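 further: cultured in fresh healthy-donor blood plasma with added antibiotic-antimycotic, run in six replicates, values give percent of fibroblasts positive for each marker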
Description: (§1) All cultures were maintained 48 hours, following which the same cells were included in paraffin blocks for subsequent analysis of the expression of different markers by immunohistochemistry (see Example 1). […] All experiments were carried out sixfold. Analyzed markers in fibroblast cells (stromal cells) were: TGF-α, TGF-β1, TGF-β2, TGF-β3, SPARC, MMP-3, MMP-7, MMP-9, MMP-11, MMP-13 and MMP-14.

[2] = test system: fibroblasts of tumors produced by human glioma tumor line (GAMG); assay: Marker expression (IHC) in fibroblasts of tumor or peritumoral area, mouse model, GAMG; type: in vivo; details: GAMG tumors in mice, 30 mg/kg/day oral, 7 days
Description: In vitro tests conducted in Example 5 are now carried out in an experimental model in mice in vivo. […] Subsequently, the expression in fibroblasts tumoral and peritumoral area of molecular markers associated with progression and maintenance of tumors: TGF-α, TGF-β1, TGF-β2, TGF-β3, MMP-7, MMP-11, MMP-14 were analyzed by immunohistochemistry.
Were injected with 2×10^7 cells tumors (corresponding, in each case to each of the tumor types as specified in Table 9) in 200 of PBS subcutaneously μl. […] Mice were randomized into two groups when the tumors reached a volume of 75 mm^3 One group was treated with non-peptide receptor antagonists NK1 and the other with placebo 200μ1. […] Tumors and samples of non-neoplastic stromal areas remote from the tumor were halved, formalin fixed (4%) and then were included in paraffin blocks for analysis by immunohistochemistry.
The expression on fibroblast cells obtained in the animal model was analyzed by immunohistochemistry, of the above markers: TGF-α, TGF-β1, TGF-β2, TGF-β3, MMP-7, MMP-1 1, MMP-14MP-14. Tables 32 to 35 depict the type of label used and the average percentage of fibroblasts present in non-tumor areas, tumor and peritumoral (±SD) which were expressing the marker shown in each of the tumor types developed from of the different cell lines used. This process was realized in mice treated with non-peptide antagonists of NK1 receptor and in untreated animals (control).

[3] = test system: fibroblast cells in co-culture with cells isolated from primary human tumors; assay: Marker expression (IHC) in fibroblasts co-cultured with primary human tumor cells (colon, pancreatic, lung carcinoma, glioma, multiple myeloma); type: cell-based
[4] = test system: leukocyte cells (mono and polymorphonuclear) in co-culture with cells isolated from primary human tumors; assay: Marker expression (IHC) in leukocytes co-cultured with primary human tumor cells (colon, pancreatic, lung carcinoma, glioma, melanoma); type: cell-based; details: SP 1 μM + antagonist 1 μM;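 further: tumor cells and leukocytes came from the same patients, co-culture contents were paraffin-embedded for immunohistochemistry with antibodies to TGF-β2 or NF-kB, leukocytes cultured alone served as control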
Description: To check that the interaction of the human primary tumor cells with cells of the immune/inflammatory (mono and polymorphonuclear leukocytes) cells, stimulates the secretion of substances of importance for survival and tumor progression, cultures were carried out using sets of immune cells/inflammatory (mono and polymorphonuclear leukocytes) with tumor cells obtained directly from primary human tumors of the same patients.
The same method described in Example 7 and 9 was used to obtain tumor cells from primary human tumors. Similarly cultured immune cells/inflammatory (mono and polymorphonuclear leukocytes) were used as control and secondly, cultured tumor cells isolated from patients in the presence of immune cells/inflammatory (mono and polymorphonuclear leukocytes).
Then, paraffin blocks were prepared with the contents of each of the groups mentioned previously for expression studies using immunohistochemistry. On this occasion, in order to identify the secretion of substances with importance for the survival and progression of tumor the following markers were analyzed: TGF-β2 (SAB4502956) and NF-kB (SAB4501992) using specific antibodies against them. All antibodies used were rabbit polyclonal antibodies obtained from Sigma Aldrich and were used at a concentration of 1/1000. Immunohistochemical techniques were performed and evaluated as described in previous examples.

[5] = test system: fibroblasts (PHF) co-cultivated with tumor cell lymphoblastic leukemia B (SDI); assay: Marker expression (IHC) in PHF co-cultured with SDI tumor cells; type: cell-based, human; details: PHF co-cultivated with SDI + SP + NK1 antagonist
Description: as §1

[6] = test system: fibroblasts (PHF) co-cultured with human glioma tumor cells (GAMG); assay: Marker expression (IHC) in PHF co-cultured with GAMG tumor cells; type: cell-based; details: co-culture with GAMG; SP 1 μM + antagonist 1 μM; 48 h;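 further: percentage of PHF fibroblasts positive for each marker, cultured in fresh plasma from a healthy donor, six replicates, with fibroblasts cultured alone as reference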
Description: as §1

[7] = Primary tumor cells (colon carcinoma) co-cultured + fibroblast + SP (1 μM) + NK1 antagonist 1 μM
[8] = co-culture with cells isolated from glioma, SP 1 μM + antagonist 1 μM
[9] = co-culture with cells isolated from lung cancer, SP 1 μM + antagonist 1 μM
[10] = co-culture with cells isolated from multiple myeloma, SP 1 μM + antagonist 1 μM
[11] = co-culture with cells isolated from pancreatic carcinoma, SP 1 μM + antagonist 1 μM
[12] = co-culture with cells isolated from colon carcinoma
[13] = co-culture with cells isolated from glioma
[14] = co-culture with cells isolated from lung carcinoma
[15] = co-culture with cells isolated from melanoma
[16] = co-culture with cells isolated from pancreatic carcinoma

CC(=O)N1CCN([C@H]2CCN(C(=O)N(C)[C@H](C)c3cc(C(F)(F)F)cc(C(F)(F)F)c3)[C@@H](c3ccc(F)cc3C)C2)CC1 [Casopitant]
0%: PHF cells expressing MMP-3 [1] | PHF cells expressing MMP-7 [1] | PHF cells expressing MMP-9 [1] | PHF cells expressing MMP-11 [1] | PHF cells expressing MMP-13 [1] | PHF cells expressing MMP-14 [1] | PHF cells expressing SPARC [1] | PHF cells expressing TGF-α [1] | PHF cells expressing TGF-β1 [1] | PHF cells expressing TGF-β2 [1] | PHF cells expressing TGF-β3 [1] | fibroblasts expressing MMP-7 [2] | fibroblasts expressing MMP-11 [2] | fibroblasts expressing MMP-14 [2] | fibroblasts expressing TGF-α [2] | fibroblasts expressing TGF-β 1 [2] | fibroblasts expressing TGF-β 2 [2] | fibroblasts expressing TGF-β 3 [2] | Percentage of fibroblast cells which expressed MMP-3 [3, 7] | Percentage of fibroblast cells which expressed MMP-7 [3, 7] | Percentage of fibroblast cells which expressed MMP-9 [3, 7] | Percentage of fibroblast cells which expressed MMP-11 [3, 7] | Percentage of fibroblast cells which expressed MMP-13 [3, 7] | Percentage of fibroblast cells which expressed MMP-14 [3, 7] | Percentage of fibroblast cells which expressed SPARC [3, 7] | Percentage of fibroblast cells which expressed TGFα [3, 7] | Percentage of fibroblast cells which expressed TGFβ1 [3, 7] | Percentage of fibroblast cells which expressed TGFβ2 [3, 7] | Percentage of fibroblast cells which expressed TGFβ3 [3, 7] | Percentage of fibroblast cells which expressed MMP-3 [3, 8] | Percentage of fibroblast cells which expressed MMP-7 [3, 8] | Percentage of fibroblast cells which expressed MMP-9 [3, 8] | Percentage of fibroblast cells which expressed MMP-11 [3, 8] | Percentage of fibroblast cells which expressed MMP-13 [3, 8] | Percentage of fibroblast cells which expressed MMP-14 [3, 8] | Percentage of fibroblast cells which expressed SPARC [3, 8] | Percentage of fibroblast cells which expressed TGFα [3, 8] | Percentage of fibroblast cells which expressed TGFβ1 [3, 8] | Percentage of fibroblast cells which expressed TGFβ2 [3, 8] | Percentage of fibroblast cells which expressed TGFβ3 [3, 8] | Percentage of fibroblast cells which expressed MMP-3 [3, 9] | Percentage of fibroblast cells which expressed MMP-7 [3, 9] | Percentage of fibroblast cells which expressed MMP-9 [3, 9] | Percentage of fibroblast cells which expressed MMP-11 [3, 9] | Percentage of fibroblast cells which expressed MMP-13 [3, 9] | Percentage of fibroblast cells which expressed MMP-14 [3, 9] | Percentage of fibroblast cells which expressed SPARC [3, 9] | Percentage of fibroblast cells which expressed TGFα [3, 9] | Percentage of fibroblast cells which expressed TGFβ1 [3, 9] | Percentage of fibroblast cells which expressed TGFβ2 [3, 9] | Percentage of fibroblast cells which expressed TGFβ3 [3, 9] | Percentage of fibroblast cells which expressed MMP-3 [3, 10] | Percentage of fibroblast cells which expressed MMP-7 [3, 10] | Percentage of fibroblast cells which expressed MMP-9 [3, 10] | Percentage of fibroblast cells which expressed MMP-11 [3, 10] | Percentage of fibroblast cells which expressed MMP-13 [3, 10] | Percentage of fibroblast cells which expressed MMP-14 [3, 10] | Percentage of fibroblast cells which expressed SPARC [3, 10] | Percentage of fibroblast cells which expressed TGFα [3, 10] | Percentage of fibroblast cells which expressed TGFβ1 [3, 10] | Percentage of fibroblast cells which expressed TGFβ2 [3, 10] | Percentage of fibroblast cells which expressed TGFβ3 [3, 10] | Percentage of fibroblast cells which expressed MMP-3 [3, 11] | Percentage of fibroblast cells which expressed MMP-7 [3, 11] | Percentage of fibroblast cells which expressed MMP-9 [3, 11] | Percentage of fibroblast cells which expressed MMP-11 [3, 11] | Percentage of fibroblast cells which expressed MMP-13 [3, 11] | Percentage of fibroblast cells which expressed MMP-14 [3, 11] | Percentage of fibroblast cells which expressed SPARC [3, 11] | Percentage of fibroblast cells which expressed TGFα [3, 11] | Percentage of fibroblast cells which expressed TGFβ1 [3, 11] | Percentage of fibroblast cells which expressed TGFβ2 [3, 11] | Percentage of fibroblast cells which expressed TGFβ3 [3, 11] | Percentage of mononuclear leukocytes cells which expressed NF-kB [4, 12] | Percentage of mononuclear leukocytes cells which expressed TGF-β [4, 12] | Percentage of polymorphonuclear leukocytes cells which expressed NF-kB [4, 12] | Percentage of polymorphonuclear leukocytes cells which expressed TGF-β [4, 12] | Percentage of mononuclear leukocytes cells expressing NF-kB [4, 13] | Percentage of mononuclear leukocytes cells expressing TGF-β [4, 13] | Percentage of polymorphonuclear leukocytes cells expressing NF-kB [4, 13] | Percentage of polymorphonuclear leukocytes cells expressing TGF-β [4, 13] | Percentage of mononuclear leukocytes cells which expressed NF-kB [4, 14] | Percentage of mononuclear leukocytes cells which expressed TGF-β [4, 14] | Percentage of polymorphonuclear leukocytes cells which expressed NF-kB [4, 14] | Percentage of polymorphonuclear leukocytes cells which expressed TGF-β [4, 14] | Percentage of mononuclear leukocytes cells which expressed NF-kB [4, 15] | Percentage of mononuclear leukocytes cells which expressed TGF-β [4, 15] | Percentage of polymorphonuclear leukocytes cells which expressed NF-kB [4, 15] | Percentage of polymorphonuclear leukocytes cells which expressed TGF-β [4, 15] | Percentage of mononuclear leukocytes cells which expressed NF-kB [4, 16] | Percentage of mononuclear leukocytes cells which expressed TGF-β [4, 16] | Percentage of polymorphonuclear leukocytes cells which expressed NF-kB [4, 16] | Percentage of polymorphonuclear leukocytes cells which expressed TGF-β [4, 16] | cells expressing MMP-3 [5] | cells expressing MMP-7 [5] | cells expressing MMP-9 [5] | cells expressing MMP-11 [5] | cells expressing MMP-13 [5] | cells expressing MMP-14 [5] | cells expressing SPARC [5] | cells expressing TGF-α [5] | cells expressing TGF-β1 [5] | cells expressing TGF-β2 [5] | cells expressing TGF-β3 [5] | PHF cells expressing MMP-3 [6] | PHF cells expressing MMP-7 [6] | PHF cells expressing MMP-9 [6] | PHF cells expressing MMP-11 [6] | PHF cells expressing MMP-13 [6] | PHF cells expressing MMP-14 [6] | PHF cells expressing SPARC [6] | PHF cells expressing TGF-α [6] | PHF cells expressing TGF-β1 [6] | PHF cells expressing TGF-β2 [6] | PHF cells expressing TGF-β3 [6]
